Measurements reported in patent US9168286B2, “Methods and compositions for use in treatment of patients with autoantibody positive disease” (Human Genome Sciences, Inc., priority 2005, dated 2015).

B1: IL-4: cytokine (protein, UniProt P05112 25-153, looked up)
Interleukin-4: HKCDITLQEIIKTLNSLTEQKTLCTELTVTDIFAASKNTTEKETFCRAATVLRQFYSHHEKDTRCLGATAQQFHRHKQLIRFLKRLDRNLWGLAGLNSCPVKEANQSTLENFLERLKTIMREKYSKCSS
B2: IL-10: cytokine (protein, UniProt P22301 19-178, looked up)
Interleukin-10: SPGQGTQSENSCTHFPGNLPNMLRDLRDAFSRVKTFFQMKDQLDNLLLKESLLEDFKGYLGCQALSEMIQFYLEEVMPQAENQDPDIKAHVNSLGENLKTLRLRLRRCHRFLPCENKSKAVEQVKNAFNKLQEKGIYKAMSEFDIFINYIEAYMTMKIRN
B3: IFN gamma: cytokine (protein, UniProt P01579 24-161, looked up)
Interferon gamma: QDPYVKEAENLKKYFNAGHSDVADNGTLFLGILKNWKEESDRKIMQSQIVSFYFKLFKNFKDDQSIQKSVETIKEDMNVKFFNSNKKKRDDFEKLTNYSVTDLNVQRKAIHELIQVMAELSPAAKTGKRKRSQMLFRG

Experiments:
Pim1 and Pim 2 = assay: Western blot of Pim1 and Pim 2 expression in primary B cells; format: cell-based, mouse; details: 2 days, 100 ng/ml rhuNeutrokine-alpha
Procedure: Antibodies and Western Blotting: Mouse anti-Pim 2 (1D12), Pim 1 (19F7), goat anti-actin (1-19), anti-mouse Ig, anti-rabbit Ig and anti-goat Ig coupled to HRP were obtained from Santa Cruz Biotechnology, Santa Cruz Calif. […] Rabbit anti-mouse Mcl-1 was purchased from Rockland, Wilmington Mass. Whole cell lysates were prepared by washing B cells in ice cold PBS and lysing in RIPA (150 mM NaCl, 1% NP-40, 0.5% sodium deoxycholate, 0.1% SDS, 50 mM Tris pH8.0) supplemented with protease inhibitors (minitab, Roche, Indianapolis Ind.) and phosphatase inhibitor cocktails I and II (Sigma). 10-50 ug of protein was resolved on 4-12% NuPage bis-tris polyacrylamide gels (Invitrogen, Carlsbad Calif.) and transferred to nitrocellulose. Blots were blocked with 3% BSA (Sigma, IgG free), 0.2% Tween-20 in PBS and incubated with primary antibody in the same buffer overnight at 4° C. Blots were washed with PBS-0.2% Tween-20, incubated with secondary antibody conjugated with HRP and developed using ECLplus (Amersham Bioscience, Piscataway N.J.). Blots were stripped for reprobing by incubation for 20 minutes at 65° C. in PBS supplemented with 1% SDS and […] β-mercaptoethanol. Blots were then washed and blocked as above. […]

B cells = assay: B cell survival assay; format: cell-based, mouse; details: Pim-1−/−2−/− B cells, 100 ng/ml rhuNeutrokine-alpha, 4 days
Text: Mice: Pim-1^+/+2^+/+, Pim-1^−/−2^+/+, Pim-1^+/+2^−/− and Pim-1^−/−2^−/− mice were generated from Pim-1^+/−2^+/− stock of Paul Rothman Columbia University, New York, N.Y. C57BL/6 (B6) mice were from The Jackson Laboratory, Bar Harbor Me. or from the National Cancer Institute Production Program, NCI-Fredrick, Fredrick Md. Animals were bred and maintained at the Univ. of Pennsylvania, Harvard Medical School, or the Univ. of Massachusetts Medical School in accordance with Institutional Animal Care and Use Committee guidelines.
B cell purification: Splenic B cells were obtained by anti-thy1.2 and complement treatment of splenocytes followed by purification of resting B cells using a step wise percoll gradient and harvesting cells at the 60-70% interface. […]
Survival assays: B cells at 5×10^6/ml were cultured in 24-well tissue culture dishes in CM at 37° C. […] Survival was monitored daily by counting viable cells using trypan blue exclusion with each determination done in triplicate.
Rapamycin is a potent inhibitor of mTOR and a potent suppressor of B cell proliferation and differentiation. […] Viable cells were determined at day 4. […]

Akt/mTOR pathway = assay: Western blotting of Akt/mTOR pathway phosphorylation in B cells; format: cell-based, mouse
Procedure: Cell cultures: Purified B cells or CD23′ B cells were cultured in RPMI-1640 supplemented with 2-mercaptoethanol, MEM-non-essential amino acids, glutamine, penicillin and streptomycin (complete media, CM). For B cell survival and other assays recombinant human Neutrokine-alpha made at Human Genome Sciences, Rockville Md. was used at 50-100 ng/ml. FLAG-tagged human Neutrokine-alpha was from Dr. Randolph Noelle, Dartmouth Medical School. Murine Neutrokine-alpha was purchased from Alexis Biochemicals, San Diego Calif. and human interferon alpha (IFNα) from PBL Biomedical, Piscataway, N.J. Rapamycin was used at a final concentration of 50 nM, added to cultures from a stock dissolve in methanol. Control B cells in experiments using rapamycin were treated with methanol as a vehicle control. For kinetic assays B cells were prepared and refrigerated overnight at 4° C. 5-6×10^6 purified B cells per sample were spun onto 24-well plates that had been coated with 5 ug/ml monoclonal anti-FLAG M2 antibody (Sigma), washed, blocked with 1% BSA in PBS, followed by the addition of FLAG-tagged human Neutrokine-alpha 2 ug/well an hour prior to washing and cell addition. Unstimulated control B cells were those spun onto wells treated with anti-FLAG antibody alone. B cells were also activated by incubation with anti-murine IgM (5 ug/ml), anti-CD40 (0.5 ug/ml) or 100 ng/ml of recombinant human Neutrokine-alpha added to kinetic assay buffer (Hank's balanced salt solution plus 2% BSA).
Antibodies and Western Blotting: Mouse anti-Pim 2 (1D12), Pim 1 (19F7), goat anti-actin (1-19), anti-mouse Ig, anti-rabbit Ig and anti-goat Ig coupled to HRP were obtained from Santa Cruz Biotechnology, Santa Cruz Calif. […] Rabbit anti-mouse Mcl-1 was purchased from Rockland, Wilmington Mass. […]
Purified B cells were stimulated for the 0, 5, 20, 60 or 120 minutes with 100 ng/ml recombinant human or murine Neutrokine-alpha or anti-Ig (positive control) at 37° C. in pregassed medium. Lysates were prepared from iced samples and analyzed by Western Blot. […]

[1] = system: Neutrokine-alpha in monocytes and macrophages; assay: Neutrokine-alpha expression in cytokine-treated monocytes and macrophages; format: cell-based; details: in vitro
B cell = assay: Neutrokine-alpha mediated B cell proliferation with cytokines; format: cell-based
Procedure: In an additional embodiment, an immunomodulatory agent is administered in combination with cytokines. Cytokines that may be administered with an immunomodulatory agent include, but are not limited to, GM-CSF, G-CSF, IL2, IL3, IL4, IL5, IL6, IL7, IL10, IL12, IL13, IL15, anti-CD40, CD40L, IFN-alpha, IFN-beta, IFN-gamma, TNF-alpha, and TNF-beta. In another embodiment, an immunomodulatory agent may be administered with any interleukin, including but not limited to, IL-1alpha, IL-1beta, IL-2, IL-3, IL-4, IL-5, IL-6, IL-7, IL-8, IL-9, IL-10, IL-11, IL-12, IL-13, IL-14, IL-15, IL-16, IL-17, IL-18, IL-19, IL-20, IL-21, and IL-22. In preferred embodiments, an immunomodulatory agent is administered in combination with IL4 and IL10. Both IL4 and IL10 have been observed by the inventors to enhance Neutrokine-alpha mediated B cell proliferation.

Row | Molecule | Pim1 and Pim 2 expression (Pim1 and Pim 2) | B cell survival (B cells) | mTOR activation (phosphorylation of p70 S6 kinase and 4E-BP1) (Akt/mTOR pathway; primary B cells) | Akt phosphorylation (serine 473 and threonine 308) (Akt/mTOR pathway; primary B cells, 100 ng/ml, 0-120 minutes) | phosphorylation of GSKβ, FOXO1 and FOXO3a (Akt/mTOR pathway; purified B cells, plate bound FLAG-tagged or soluble (100 ng/ml) Neutrokine-alpha) | cell surface expression of Neutrokine-alpha [1] | Neutrokine-alpha mediated B cell proliferation (B cell)
1 | Neutrokine-alpha: recombinant human Neutrokine-alpha made at Human Genome Sciences; member of the TNF family of ligands | upregulate | enhanced survival | activation of mTOR | activation of the Akt pathway | phosphorylation of the Akt substrates | – | –
2 | B1 | – | – | – | – | – | decreased | enhance
3 | B2 | – | – | – | – | – | enhance | enhance
4 | B3 | – | – | – | – | – | enhance | –
